The subject of one experiment is guinea pigs. Briefly: In vivo bronchodilator activity by tracheal instillation against histamine-induced bronchoconstriction. Further details: species or system guinea pig. As to conditions: 100 μl, anesthetized male Hartley guinea pigs, histamine challenge 50 μg/kg i.v., inhibition of tracheal pressure increase. The procedure: The in vivo bronchodilator activity of VIP analogs in guinea pigs was assessed by the tracheal instillation route of administration. This technique utilized male guinea pigs (Hartley strain, Charles River) weighing 400-600 g. Animals were anesthetized with urethane (2 g/kg) intraperitoneally and a polyethylene cannula was inserted into the jugular vein for intravenous drug administration.
The animals were tracheotomized and dosing solutions of distilled water or test compound dissolved in distilled water were administered into the trachea, approximately three-quarter the distance to the carina with a pipette. The concentration of the dosing solution was adjusted to deliver a constant volume of 100 μl. The animals were placed supine for one minute to aid drug delivery to the lung. One minute later, spontaneous breathing was arrested with succinylcholine chloride (1.2 mg/kg) administered intravenously, and the animals were ventilized with a Harvard Model 680 small animal respirator set at 40 breaths/min and 4.0 cm^3 stoke volume. The animals were challenged with a maximal constrictory dose of histamine (50 μg/kg, i.v.) and tracheal pressure (cm of water) was recorded from a Statham pressure transducer (P 32 AA).
The change in tracheal pressure was averaged for at least 3 control and 3 drug-treated animals and percent inhibition was calculated. The relative potency of compounds administered by the instillation route was determined by administering various doses of test compound and calculating the median inhibitory dose (ID50 value). The ID50 was determined from log dose-reasons curves generated by at least 3 doses that caused inhibitory effects between 10% and 90%. The correlation coefficient for the regression line of each antagonist was always greater than 0.95.
For determination of the time course of inhibition for various compounds, the time between administration of compound and challenge with histamine was varied. The time course of activity was calculated as the time when inhibition decreased to 40%.

Experiment [1] relates to guinea pig tracheal smooth muscle. Briefly: Tracheal relaxant activity of VIP analogs on isolated guinea pig tracheal rings. It is filed as cell-based. To be noted: cumulative concentration response; responses as % of maximum response to VIP (10^-6 M=100%); at least three tissues pooled; linear regression. The procedure:
The relaxant activity of the VIP analogs was studied in a model utilizing guinea pig trachea. [Wasserman, M. A. et al., in Vasoactive Intestinal Peptide, S. I. Said, ed., Raven Press, N.Y. 1982, pp 177-184]; All tissues were taken from male albino guinea pig weighing 400-600 g, anesthesized with urethane (2 g/kg, i.p.). After exanguination, the trachea were removed and divided into four ring segments (3 mm length). Each ring was suspended by 30 gauge stainless steel wires in a 10 mL jacketed tissue bath and attached via 4-0 silk thread to a Grass force displacement transducer (model FT03C, Grass Instruments Co., Quincy, Ma), for isometric recording of tension. The smooth muscle was bathed in modified Krebs solution of the following composition: NaCl, 120 mM; KCl, 4.7 mM; CaCl2, 2.5 mM; MgSO.4 7H2 O, 1.2 mM; NaHCO3, 25 mM; K2 HPO4 monobasic, 1.2 mM; and dextrose, 10 mM. Tissue baths were maintained at 37° C. and constantly bubbled with 95% O2 and 5% CO2. Responses were recorded on an 8 channel and a 4 channel Hewlett-Packard (model 7702B and 7754A, respectively) recorder (Hewlett-Packard, Paramus, N.J.). […] Frequent readjustments of tension were required during the 60 minute stabilization period which followed. Tissues were rinsed at 15 minute intervals.
Cumulative concentration response curves were obtained for each tissue by successive […] increases in the bath concentration of VIP or VIP analogs according to the method of VanRossum [Arch. Int. Pharmacodyn., 143, 299-330 (1963)]. Only one cumulative dose response curve was obtained on a single tissue. To minimize variability between tissues, relaxant responses were expressed as a percentage of the maximum response obtained to VIP (10^-6 M=100%) added at the end of each concentration response experiment. Responses obtained from at least three tissues were pooled and EC50 values were determined by linear regression.

[ ]: non-standard residue; d: D form. Phe(4-NH2) = Nc1ccc(C[C@H](N)C(=O)O)cc1; Phe(4-F) = N[C@@H](Cc1ccc(F)cc1)C(=O)O; Nle = CCCC[C@H](N)C(=O)O

By EC50 is commonly meant the midpoint of the concentration-response curve. Read a low EC50 as an effect from little substance. On to “Ac--[Glu^8, Lys^12, Nle^17, Ala^25, Leu^26, Lys^27,28, Gly^29,30, Thr^31 ]--VIP (Ac-HSDAVFTENYTKLRKQ[Nle]AVKKYLNALKKGGT-NH2; SMILES CCCC[C@H](NC(=O)[C@H](CCC(N)=O)NC(=O)[C@H](CCCCN)NC(=O)[C@H](CCCNC(=N)N)NC(=O)[C@H](CC(C)C)NC(=O)[C@H](CCCCN)NC(=O)[C@@H](NC(=O)[C@H](Cc1ccc(O)cc1)NC(=O)[C@H](CC(N)=O)NC(=O)[C@H](CCC(=O)O)NC(=O)[C@@H](NC(=O)[C@H](Cc1ccccc1)NC(=O)[C@@H](NC(=O)[C@H](C)NC(=O)[C@H](CC(=O)O)NC(=O)[C@H](CO)NC(=O)[C@H](Cc1c[nH]cn1)NC(C)=O)C(C)C)[C@@H](C)O)[C@@H](C)O)C(=O)N[C@@H](C)C(=O)N[C@H](C(=O)N[C@@H](CCCCN)C(=O)N[C@@H](CCCCN)C(=O)N[C@@H](Cc1ccc(O)cc1)C(=O)N[C@@H](CC(C)C)C(=O)N[C@@H](CC(N)=O)C(=O)N[C@@H](C)C(=O)N[C@@H](CC(C)C)C(=O)N[C@@H](CCCCN)C(=O)N[C@@H](CCCCN)C(=O)NCC(=O)NCC(=O)N[C@H](C(N)=O)[C@@H](C)O)C(C)C) [Ac--(SEQ ID NO: 16)--NH2]”, for which the “Bronchodilator activity in guinea pigs, ED50” value (“Bronchodilator activity” below) in the experiment on guinea pigs was 0.043 µg. This substance also came in with an EC50 in experiment [1] of 0.27 nM.
On to “Ac--[Ala^2, Glu^8, Lys^12, Nle^17, Ala^19, Val^26, Thr^28, Ala^29-31 ]--VIP (Ac-HADAVFTENYTKLRKQ[Nle]AAKKYLNSVLTAAA-NH2; SMILES CCCC[C@H](NC(=O)[C@H](CCC(N)=O)NC(=O)[C@H](CCCCN)NC(=O)[C@H](CCCNC(=N)N)NC(=O)[C@H](CC(C)C)NC(=O)[C@H](CCCCN)NC(=O)[C@@H](NC(=O)[C@H](Cc1ccc(O)cc1)NC(=O)[C@H](CC(N)=O)NC(=O)[C@H](CCC(=O)O)NC(=O)[C@@H](NC(=O)[C@H](Cc1ccccc1)NC(=O)[C@@H](NC(=O)[C@H](C)NC(=O)[C@H](CC(=O)O)NC(=O)[C@H](C)NC(=O)[C@H](Cc1c[nH]cn1)NC(C)=O)C(C)C)[C@@H](C)O)[C@@H](C)O)C(=O)N[C@@H](C)C(=O)N[C@@H](C)C(=O)N[C@@H](CCCCN)C(=O)N[C@@H](CCCCN)C(=O)N[C@@H](Cc1ccc(O)cc1)C(=O)N[C@@H](CC(C)C)C(=O)N[C@@H](CC(N)=O)C(=O)N[C@@H](CO)C(=O)N[C@H](C(=O)N[C@@H](CC(C)C)C(=O)N[C@H](C(=O)N[C@@H](C)C(=O)N[C@@H](C)C(=O)N[C@@H](C)C(N)=O)[C@@H](C)O)C(C)C) [Ac--(SEQ ID NO: 19)--NH2]”, for which the “Bronchodilator activity” value in the experiment on guinea pigs was found to be 0.47 µg. For the same substance, the EC50 in experiment [1] is 0.23 nM.
Turning to “Ac--[p-F--Phe^6, Glu^8, Lys^12, Nle^17, Ala^25, Leu^26, Lys^27,28, Gly^29,30, Thr^31 ]--VIP (Ac-HSDAV[Phe(4-F)]TENYTKLRKQ[Nle]AVKKYLNALKKGGT-NH2; SMILES CCCC[C@H](NC(=O)[C@H](CCC(N)=O)NC(=O)[C@H](CCCCN)NC(=O)[C@H](CCCNC(=N)N)NC(=O)[C@H](CC(C)C)NC(=O)[C@H](CCCCN)NC(=O)[C@@H](NC(=O)[C@H](Cc1ccc(O)cc1)NC(=O)[C@H](CC(N)=O)NC(=O)[C@H](CCC(=O)O)NC(=O)[C@@H](NC(=O)[C@H](Cc1ccc(F)cc1)NC(=O)[C@@H](NC(=O)[C@H](C)NC(=O)[C@H](CC(=O)O)NC(=O)[C@H](CO)NC(=O)[C@H](Cc1c[nH]cn1)NC(C)=O)C(C)C)[C@@H](C)O)[C@@H](C)O)C(=O)N[C@@H](C)C(=O)N[C@H](C(=O)N[C@@H](CCCCN)C(=O)N[C@@H](CCCCN)C(=O)N[C@@H](Cc1ccc(O)cc1)C(=O)N[C@@H](CC(C)C)C(=O)N[C@@H](CC(N)=O)C(=O)N[C@@H](C)C(=O)N[C@@H](CC(C)C)C(=O)N[C@@H](CCCCN)C(=O)N[C@@H](CCCCN)C(=O)NCC(=O)NCC(=O)N[C@H](C(N)=O)[C@@H](C)O)C(C)C) [Ac--(SEQ ID NO: 17)--NH2]”, the “Bronchodilator activity” value with guinea pigs worked out at 0.12 µg. Also, in experiment [1], the midpoint of the response, the EC50, lay at 0.33 nM.
Turning to “Ac--[p-NH2 --Phe^10, Lys^12, Nle^17, Val^26, Thr^28 ]--VIP (Ac-HSDAVFTDN[Phe(4-NH2)]TKLRKQ[Nle]AVKKYLNSVLT-NH2; SMILES CCCC[C@H](NC(=O)[C@H](CCC(N)=O)NC(=O)[C@H](CCCCN)NC(=O)[C@H](CCCNC(=N)N)NC(=O)[C@H](CC(C)C)NC(=O)[C@H](CCCCN)NC(=O)[C@@H](NC(=O)[C@H](Cc1ccc(N)cc1)NC(=O)[C@H](CC(N)=O)NC(=O)[C@H](CC(=O)O)NC(=O)[C@@H](NC(=O)[C@H](Cc1ccccc1)NC(=O)[C@@H](NC(=O)[C@H](C)NC(=O)[C@H](CC(=O)O)NC(=O)[C@H](CO)NC(=O)[C@H](Cc1c[nH]cn1)NC(C)=O)C(C)C)[C@@H](C)O)[C@@H](C)O)C(=O)N[C@@H](C)C(=O)N[C@H](C(=O)N[C@@H](CCCCN)C(=O)N[C@@H](CCCCN)C(=O)N[C@@H](Cc1ccc(O)cc1)C(=O)N[C@@H](CC(C)C)C(=O)N[C@@H](CC(N)=O)C(=O)N[C@@H](CO)C(=O)N[C@H](C(=O)N[C@@H](CC(C)C)C(=O)N[C@H](C(N)=O)[C@@H](C)O)C(C)C)C(C)C) [Ac--(SEQ ID NO: 54)--NH2]”, in the experiment on guinea pigs, the “Bronchodilator activity” value came to 2.0 µg. This substance came in with an EC50 in experiment [1] of 0.36 nM.
The corresponding values for “Ac--[p-F--Phe^6, p-NH2 --Phe^10, Lys^12, Nle^17, Val^26, Thr^28 ]--VIP (Ac-HSDAV[Phe(4-F)]TDN[Phe(4-NH2)]TKLRKQ[Nle]AVKKYLNSVLT-NH2; SMILES CCCC[C@H](NC(=O)[C@H](CCC(N)=O)NC(=O)[C@H](CCCCN)NC(=O)[C@H](CCCNC(=N)N)NC(=O)[C@H](CC(C)C)NC(=O)[C@H](CCCCN)NC(=O)[C@@H](NC(=O)[C@H](Cc1ccc(N)cc1)NC(=O)[C@H](CC(N)=O)NC(=O)[C@H](CC(=O)O)NC(=O)[C@@H](NC(=O)[C@H](Cc1ccc(F)cc1)NC(=O)[C@@H](NC(=O)[C@H](C)NC(=O)[C@H](CC(=O)O)NC(=O)[C@H](CO)NC(=O)[C@H](Cc1c[nH]cn1)NC(C)=O)C(C)C)[C@@H](C)O)[C@@H](C)O)C(=O)N[C@@H](C)C(=O)N[C@H](C(=O)N[C@@H](CCCCN)C(=O)N[C@@H](CCCCN)C(=O)N[C@@H](Cc1ccc(O)cc1)C(=O)N[C@@H](CC(C)C)C(=O)N[C@@H](CC(N)=O)C(=O)N[C@@H](CO)C(=O)N[C@H](C(=O)N[C@@H](CC(C)C)C(=O)N[C@H](C(N)=O)[C@@H](C)O)C(C)C)C(C)C) [Ac--(SEQ ID NO: 68)--NH2]” are 3.0 µg and 1.2 nM.
In the same order, the values of “Ac--[Ala^2, Lys^12, Nle^17, Ala^25, Leu^26, Lys^27,28, Gly^29,30, Thr^31 ]--VIP (Ac-HADAVFTDNYTKLRKQ[Nle]AVKKYLNALKKGGT-NH2; SMILES CCCC[C@H](NC(=O)[C@H](CCC(N)=O)NC(=O)[C@H](CCCCN)NC(=O)[C@H](CCCNC(=N)N)NC(=O)[C@H](CC(C)C)NC(=O)[C@H](CCCCN)NC(=O)[C@@H](NC(=O)[C@H](Cc1ccc(O)cc1)NC(=O)[C@H](CC(N)=O)NC(=O)[C@H](CC(=O)O)NC(=O)[C@@H](NC(=O)[C@H](Cc1ccccc1)NC(=O)[C@@H](NC(=O)[C@H](C)NC(=O)[C@H](CC(=O)O)NC(=O)[C@H](C)NC(=O)[C@H](Cc1c[nH]cn1)NC(C)=O)C(C)C)[C@@H](C)O)[C@@H](C)O)C(=O)N[C@@H](C)C(=O)N[C@H](C(=O)N[C@@H](CCCCN)C(=O)N[C@@H](CCCCN)C(=O)N[C@@H](Cc1ccc(O)cc1)C(=O)N[C@@H](CC(C)C)C(=O)N[C@@H](CC(N)=O)C(=O)N[C@@H](C)C(=O)N[C@@H](CC(C)C)C(=O)N[C@@H](CCCCN)C(=O)N[C@@H](CCCCN)C(=O)NCC(=O)NCC(=O)N[C@H](C(N)=O)[C@@H](C)O)C(C)C) [Ac--(SEQ ID NO: 20)--NH2]” are 0.05 µg and 0.44 nM.
